Measurements reported in ChEMBL document CHEMBL3352542, “Synthesis, biological evaluation and molecular modeling study of 2-(1,3,4-thiadiazolyl-thio and 4-methyl-thiazolyl-thio)-quinazolin-4-ones as a new class of DHFR inhibitors” (Bioorg Med Chem Lett, 2014).
Active and inactive are the calls of the source. The rule behind the calls is not given here.

Columns and labels:
HT-29 = test: Growth inhibition of human HT-29 cells at 10 uM after 48 hrs; type: functional
U-251 = test: Growth inhibition of human U251 cells at 10 uM after 48 hrs; type: functional
MCF7 = test: Growth inhibition of human MCF7 cells at 10 uM after 48 hrs; type: functional
SW-620 = test: Growth inhibition of human SW620 cells at 10 uM after 48 hrs; type: functional
HCC 2998 = test: Growth inhibition of human HCC2998 cells at 10 uM after 48 hrs; type: functional
MDA-MB-231 = test: Growth inhibition of human MDA-MB-231 cells at 10 uM after 48 hrs; type: functional
A498 = test: Growth inhibition of human A498 cells at 10 uM after 48 hrs; type: functional
BT-549 = test: Growth inhibition of human BT549 cells at 10 uM after 48 hrs; type: functional
A549 = test: Growth inhibition of human A549 cells at 10 uM after 48 hrs; type: functional
ACHN = test: Growth inhibition of human ACHN cells at 10 uM after 48 hrs; type: functional
COLO 205 = test: Growth inhibition of human COLO205 cells at 10 uM after 48 hrs; type: functional
HOP-92 = test: Growth inhibition of human HOP92 cells at 10 uM after 48 hrs; type: functional
RXF 393 = test: Growth inhibition of human RXF393 cells at 10 uM after 48 hrs; type: functional
NCI/ADR-RES = test: Growth inhibition of human NCI-ADR-RES cells at 10 uM after 48 hrs; type: functional
SN12C = test: Growth inhibition of human SN12C cells at 10 uM after 48 hrs; type: functional
Malme-3M = test: Growth inhibition of human MALME-3M cells at 10 uM after 48 hrs; type: functional
UACC-257 = test: Growth inhibition of human UACC257 cells at 10 uM after 48 hrs; type: functional
HCT-116 = test: Growth inhibition of human HCT116 cells at 10 uM after 48 hrs; type: functional
HCT-15 = test: Growth inhibition of human HCT15 cells at 10 uM after 48 hrs; type: functional
UO-31 = test: Growth inhibition of human UO31 cells at 10 uM after 48 hrs; type: functional
HL-60(TB) = test: Growth inhibition of human HL-60(TB) cells at 10 uM after 48 hrs; type: functional
Candida albicans = test: Antimicrobial activity against Candida albicans assessed as inhibition zone at 200 ug/disk after 24 hrs by disc-diffusion method; type: functional; settings: read-out: IZ
NCI-H23 = test: Growth inhibition of human NCI-H23 cells at 10 uM after 48 hrs; type: functional
SNB-19 = test: Growth inhibition of human SNB19 cells at 10 uM after 48 hrs; type: functional
Dihydrofolate reductase = molecular target: T1, Dihydrofolate reductase (Bos taurus, UniProt P00376); test: Inhibition of bovine liver DHFR
T1 sequence (P00376 whole entry): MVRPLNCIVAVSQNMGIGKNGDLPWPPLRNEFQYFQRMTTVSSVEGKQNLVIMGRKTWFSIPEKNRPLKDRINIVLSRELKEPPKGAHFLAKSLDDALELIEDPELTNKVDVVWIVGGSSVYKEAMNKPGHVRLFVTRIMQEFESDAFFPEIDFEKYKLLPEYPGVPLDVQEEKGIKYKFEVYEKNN

MOLT-4 = test: Growth inhibition of human MOLT4 cells at 10 uM after 48 hrs; type: functional
SF-295 = test: Growth inhibition of human SF295 cells at 10 uM after 48 hrs; type: functional
OVCAR-5 = test: Growth inhibition of human OVCAR5 cells at 10 uM after 48 hrs; type: functional
OVCAR-3 = test: Growth inhibition of human OVCAR3 cells at 10 uM after 48 hrs; type: functional
Escherichia coli = test: Antimicrobial activity against Escherichia coli assessed as inhibition zone at 200 ug/disk after 24 hrs by disc-diffusion method; type: functional; settings: read-out: IZ
LOX IMVI = test: Growth inhibition of human LOXIMVI cells at 10 uM after 48 hrs; type: functional
SR = test: Growth inhibition of human SR cells at 10 uM after 48 hrs; type: functional
NCI-H226 = test: Growth inhibition of human NCI-H226 cells at 10 uM after 48 hrs; type: functional
K562 = test: Growth inhibition of human K562 cells at 10 uM after 48 hrs; type: functional
OVCAR-4 = test: Growth inhibition of human OVCAR4 cells at 10 uM after 48 hrs; type: functional
786-0 = test: Growth inhibition of human 786-0 cells at 10 uM after 48 hrs; type: functional
M14 = test: Growth inhibition of human M14 cells at 10 uM after 48 hrs; type: functional
MDA-MB-468 = test: Growth inhibition of human MDA-MB-468 cells at 10 uM after 48 hrs; type: functional
MDA-MB-435 = test: Growth inhibition of human MDA-MB-435 cells at 10 uM after 48 hrs; type: functional
KM12 = test: Growth inhibition of human KM12 cells at 10 uM after 48 hrs; type: functional
CAKI-1 = test: Growth inhibition of human CAKI-1 cells at 10 uM after 48 hrs; type: functional
SNB-75 = test: Growth inhibition of human SNB75 cells at 10 uM after 48 hrs; type: functional
CCRF-CEM = test: Growth inhibition of human CCRF-CEM cells at 10 uM after 48 hrs; type: functional
Staphylococcus aureus = test: Antimicrobial activity against Staphylococcus aureus assessed as inhibition zone at 200 ug/disk after 24 hrs by disc-diffusion method; type: functional; settings: read-out: IZ
PC-3 = test: Growth inhibition of human PC3 cells at 10 uM after 48 hrs; type: functional
Hs-578T = test: Growth inhibition of human Hs 578T cells at 10 uM after 48 hrs; type: functional
Bacillus subtilis = test: Antimicrobial activity against Bacillus subtilis assessed as inhibition zone at 200 ug/disk after 24 hrs by disc-diffusion method; type: functional; settings: read-out: IZ
UACC-62 = test: Growth inhibition of human UACC62 cells at 10 uM after 48 hrs; type: functional
SK-MEL-5 = test: Growth inhibition of human SK-MEL-5 cells at 10 uM after 48 hrs; type: functional
T47D = test: Growth inhibition of human T47D cells at 10 uM after 48 hrs; type: functional
OVCAR-8 = test: Growth inhibition of human OVCAR8 cells at 10 uM after 48 hrs; type: functional
RPMI-8226 = test: Growth inhibition of human RPMI8226 cells at 10 uM after 48 hrs; type: functional
TK-10 = test: Growth inhibition of human TK10 cells at 10 uM after 48 hrs; type: functional
SF-539 = test: Growth inhibition of human SF539 cells at 10 uM after 48 hrs; type: functional
SF-268 = test: Growth inhibition of human SF268 cells at 10 uM after 48 hrs; type: functional
NCI-H460 = test: Growth inhibition of human NCI-H460 cells at 10 uM after 48 hrs; type: functional
Pseudomonas aeruginosa = test: Antimicrobial activity against Pseudomonas aeruginosa assessed as inhibition zone at 200 ug/disk after 24 hrs by disc-diffusion method; type: functional; settings: read-out: IZ
NCI-H522 = test: Growth inhibition of human NCI-H522 cells at 10 uM after 48 hrs; type: functional

`Cc1nc(N)sc1Sc1nc2ccc(Cl)cc2c(=O)n1-c1ccc(Cl)cc1` was tested, and the “growth inhibition (GI)” value (HT-29) was “inactive”, the “growth inhibition (GI)” value (U-251) was “inactive” and the “growth inhibition (GI)” value (MCF7) was “inactive”. For the same compound, the “growth inhibition (GI)” value (SW-620) was “inactive”, the “growth inhibition (GI)” value (HCC 2998) was “inactive” and the “growth inhibition (GI)” value (MDA-MB-231) was “inactive”. For the same compound, the “growth inhibition (GI)” value (A498) was “inactive”, the “growth inhibition (GI)” value (BT-549) was “inactive” and the “growth inhibition (GI)” value (A549) was “inactive”. The “growth inhibition (GI)” value (ACHN) was “inactive”, the “growth inhibition (GI)” value (COLO 205) was “inactive” and the “growth inhibition (GI)” value (HOP-92) was “inactive”. The “growth inhibition (GI)” value (RXF 393) was “inactive”, the “growth inhibition (GI)” value (NCI/ADR-RES) was “inactive” and the “growth inhibition (GI)” value (SN12C) was “inactive”. For the same compound, the “growth inhibition (GI)” value (Malme-3M) was “inactive”, the “growth inhibition (GI)” value (UACC-257) was “inactive” and the “growth inhibition (GI)” value (HCT-116) was “inactive”. The “growth inhibition (GI)” value (HCT-15) was “inactive”, the “growth inhibition (GI)” value (UO-31) was “inactive” and the “growth inhibition (GI)” value (HL-60(TB)) was “inactive”. The zone of inhibition at 200 µg/disc (Candida albicans) was 8 mm, the “growth inhibition (GI)” value (NCI-H23) was “inactive” and the “growth inhibition (GI)” value (SNB-19) was “inactive”. The IC50 (Dihydrofolate reductase) was 8 µM, the “growth inhibition (GI)” value (MOLT-4) was “inactive” and the “growth inhibition (GI)” value (SF-295) was “inactive”. The “growth inhibition (GI)” value (OVCAR-5) was “inactive”, the “growth inhibition (GI)” value (OVCAR-3) was “inactive” and the zone of inhibition at 200 µg/disc (Escherichia coli) was 8 mm. For the same compound, the “growth inhibition (GI)” value (LOX IMVI) was “inactive”, the “growth inhibition (GI)” value (SR) was “inactive” and the “growth inhibition (GI)” value (NCI-H226) was “inactive”. The “growth inhibition (GI)” value (K562) was “inactive”, the “growth inhibition (GI)” value (OVCAR-4) was “inactive” and the “growth inhibition (GI)” value (786-0) was “inactive”. For the same compound, the “growth inhibition (GI)” value (M14) was “inactive”, the “growth inhibition (GI)” value (MDA-MB-468) was “inactive” and the “growth inhibition (GI)” value (MDA-MB-435) was “inactive”. The “growth inhibition (GI)” value (KM12) was “inactive”, the “growth inhibition (GI)” value (CAKI-1) was “inactive” and the “growth inhibition (GI)” value (SNB-75) was “inactive”. For the same compound, the “growth inhibition (GI)” value (CCRF-CEM) was “inactive”, the zone of inhibition at 200 µg/disc (Staphylococcus aureus) was 8 mm and the “growth inhibition (GI)” value (PC-3) was “inactive”. For the same compound, the “growth inhibition (GI)” value (Hs-578T) was “inactive”, the zone of inhibition at 200 µg/disc (Bacillus subtilis) was 8 mm and the “growth inhibition (GI)” value (UACC-62) was “inactive”. For the same compound, the “growth inhibition (GI)” value (SK-MEL-5) was “inactive”, the “growth inhibition (GI)” value (T47D) was “inactive” and the “growth inhibition (GI)” value (OVCAR-8) was “inactive”. The “growth inhibition (GI)” value (RPMI-8226) was “inactive”, the “growth inhibition (GI)” value (TK-10) was “inactive” and the “growth inhibition (GI)” value (SF-539) was “inactive”. For the same compound, the “growth inhibition (GI)” value (SF-268) was “inactive”, the “growth inhibition (GI)” value (NCI-H460) was “inactive” and the zone of inhibition at 200 µg/disc (Pseudomonas aeruginosa) was 8 mm. For the same compound, the “growth inhibition (GI)” value (NCI-H522) was “inactive”.
